According to patent US20090148398A1, “Naturally Occurring Volatile Attractant” (priority 2007, published 2009):
“Also recorded” adds a separate entry of the source.

Experiments:
fire ant workers = experiment: Fire ant alarm response; parameters: species or system Solenopsis invicta; details: in vivo
Procedure: Recently, the identity of a component of the fire ant alarm pheromone was determined to be 2-ethyl, 3,6-dimethyl pyrazine and the origin is the mandibular gland. […] In addition, 2-ethyl, 3,6-dimethyl pyrazine is commercially available as a mixture with the related compound, 2-ethyl, 3,5-dimethyl pyrazine.

S. invicta workers = experiment: Y-tube olfactometer attraction bioassay; parameters: species or system Solenopsis invicta; details: in vivo
Text: All ants used in these experiments were obtained from mature, queenright, monogyne Solenopsis invicta colonies excavated from a known monogyne site in Gainesville, Fla. The colonies were separated from the dirt and set up in the laboratory at least one month prior to the experiments. Laboratory colonies were maintained on a diet of crickets, water and 10% sucrose, and kept in plastic trays (83×53×13 cm) whose inner sides were painted with poly tetrafluoroethylene compositions (ADI Fluon, ICI Americas, Bayonne, NF) to prevent, escape of the ants. Based on the above, the attraction of S. invicta workers to various concentrations of the commercially available mixture of 2-ethyl, 3,5-dimethyl pyrazine and 2-ethyl, 3,6-dimethyl pyrazine was evaluated using a Y-tube olfactometer (FIG. 5). The olfactometer is composed of two 24/40 ground glass joints 14 each ring sealed to one of the arms 24 of an approximately 5 cm Y-tube 26 such that about 1 cm of each Y-tube extends through the male half of one of the ground glass joints. An approximately 5 cm piece of about 0.6 cm tubing is ring sealed about 1 cm into the female half of the ground glass joints. […] The number of ants entering the chamber with either the control or the treatment during the 3 min were counted and recorded. […]

Row | SMILES | alarm response of fire ant workers (fire ant workers) | attraction of fire ant workers (conclusion of olfactometer experiment) (S. invicta workers)
1 | CCc1ncc(C)nc1C [2-ethyl, 3,5-dimethyl pyrazine] | elicit an alarm response | –
2 | CCc1nc(C)cnc1C [2-ethyl, 3,6-dimethyl pyrazine] | elicited the full range of previously reported fire ant alarm behaviors; also recorded: fire ant workers responded better | attracts fire ant workers through space
